The values that follow come from ChEMBL document CHEMBL2406940, “Reactive oxygen species production by quercetin causes the death of Leishmania amazonensis intracellular amastigotes” (J Nat Prod, 2013).

For orientation: IC50 means the point on the concentration scale where inhibition reaches its midpoint.

Calls of active or inactive are those of the source. No cut-off for these calls is given here.

The subject of assay [1] is Leishmania amazonensis. In words: Antileishmanial activity against Leishmania amazonensis after 72 hrs. It counts as functional, organism-based.
In assay [2] the test system is Peritoneal macrophage cell. Briefly: Induction of intracellular […] production in promastigotes of Leishmania amazonensis MHOM/BR/75/LTB0016 infected Swiss mouse peritoneal macrophages at 12 uM after 72 hrs by spectrofluorometric analysis relative to control. The format is functional.
Assay [3] can be described thus: Cytotoxicity against Swiss mouse peritoneal macrophages after 72 hrs by AlamarBlue assay. The format is cell-based. The settings on record: Peritoneal macrophage cell. (The colour change of resazurin is a common sign of viable cells or microbes.)
Assay [4] has as its system Peritoneal macrophage cell. In words: Induction of intracellular […] production in Swiss mouse peritoneal macrophages up to 12 uM after 72 hrs by spectrofluorometric analysis. The format is functional, cell-based.
Assay [5] relates to Leishmania amazonensis. In words: Antileishmanial activity against promastigotes of Leishmania amazonensis MHOM/BR/75/LTB0016 infected in Swiss mouse peritoneal macrophages assessed as parasite growth inhibition at 12 uM after 72 hrs. The conditions noted are these: MHOM/BR/75/LTB0016, 72 h, read-out: GI. It counts as functional.
Assay [6] concerns Leishmania amazonensis. Briefly: Antileishmanial activity against promastigotes of Leishmania amazonensis MHOM/BR/75/LTB0016 infected in Swiss mouse peritoneal macrophages assessed as reduction of infection index after 72 hrs. The format is functional, organism-based.
Assay [7] is described as follows: Selectivity index, ratio of IC50 for Swiss mouse peritoneal macrophages to IC50 for promastigotes of Leishmania amazonensis MHOM/BR/75/LTB0016.
Assay [8] has as its system Peritoneal macrophage cell. Briefly: Induction of intracellular […] production in promastigotes of Leishmania amazonensis MHOM/BR/75/LTB0016 infected Swiss mouse peritoneal macrophages after 72 hrs by spectrofluorometric analysis. It counts as functional, cell-based.

In turn, `CCCCCCCCCCCCCCCCOP(=O)([O-])OCC[N+](C)(C)C` [MILTEFOSINE] showed an IC50 in the assay on Leishmania amazonensis [1] of 3.2 µM.

On to `O=c1c(O)c(-c2ccc(O)c(O)c2)oc2cc(O)cc(O)c12` [QUERCETIN], for which the “fold change (FC)” value in assay [2] is given as 1.5. In addition, the IC50 in assay [3] worked out at 80.2 µM; with Leishmania amazonensis [6] (MHOM/BR/75/LTB0016, 72 h) it was 3.4 µM. Moreover, the result in assay [4] was inactive. The inhibition of growth at 12 µM with Leishmania amazonensis [5] stood at 74.8%. In addition, the inhibition entry with Leishmania amazonensis [6] was “Dose-dependent effect”. The “Ratio IC50” value in assay [7] is 16.8. Also, the Activity entry in assay [8] is “Dose-dependent effect”.
